Here are results for 22 compounds from US20250325534A1, “MICROBIOCIDAL TETRAHYDROISOQUINOLINE DERIVATIVES” (SYNGENTA CROP PROTECTION AG, priority 2021, published 2025).

What all share (type): cell-based
Assay [1] has as its system Mycosphaerella graminicola. Description: Mycosphaerella graminicola (Septoria tritici) / liquid culture (Septoria blotch). The following applies: Zymoseptoria tritici, 96 h, photometrically 4-5 days after application, read-out: control of Mycosphaerella graminicola. The protocol:
Example B19: Mycosphaerella graminicola (Septoria tritici)/Liquid Culture (Septoria Blotch) Conidia of the fungus from cryogenic storage are directly mixed into a nutrient broth (potato dextrose broth). After placing a DMSO solution of test compound into a microtiter plate (96-well format), the nutrient broth containing the fungal spores is added. The test plates are incubated at 24° C. and the inhibition of growth is determined photometrically 4-5 days after application.

The next assay concerns Glomerella lagenarium. Description: Glomerella lagenarium (Colletotrichum lagenarium) / liquid culture (anthracnose). The following applies: Colletotrichum orbiculare, 72 h, photometrically 3-4 days after application, read-out: control of Glomerella lagenarium. On the procedure:
Example B5: Glomerella Lagenarium (Colletotrichum Lagenarium)/Liquid Culture (Anthracnose) Conidia of the fungus from cryogenic storage are directly mixed into a nutrient broth (potato dextrose broth). After placing a DMSO solution of test compound into a microtiter plate (96-well format), the nutrient broth containing the fungal spores is added. The test plates are incubated at 24° C. and the inhibition of growth is measured photometrically 3-4 days after application.

The next assay concerns Mycosphaerella arachidis. Description: Mycosphaerella arachidis (Cercospora arachidicola) / liquid culture (early leaf spot). The following applies: 96 h, photometrically 4-5 days after application, read-out: control of Mycosphaerella arachidis. The protocol:
Example B11: Mycosphaerella arachidis (Cercospora arachidicola)/Liquid Culture (Early Leaf Spot) Conidia of the fungus from cryogenic storage are directly mixed into a nutrient broth (potato dextrose broth). After placing a DMSO solution of test compound into a microtiter plate (96-well format), the nutrient broth containing the fungal spores is added. The test plates are incubated at 24° C. and the inhibition of growth is determined photometrically 4-5 days after application.

The test system of the next assay is Monographella nivalis. Description: Monographella nivalis (Microdochium nivale) / liquid culture (foot rot cereals). The settings on record: 96 h, photometrically 4-5 days after application, read-out: control of Monographella nivalis. The protocol:
Example B10: Monographella nivalis (Microdochium nivale)/Liquid Culture (Foot Rot Cereals) Conidia of the fungus from cryogenic storage are directly mixed into a nutrient broth (potato dextrose broth). After placing a DMSO solution of test compound into a microtiter plate (96-well format), the nutrient broth containing the fungal spores is added. The test plates are incubated at 24° C. and the inhibition of growth is determined photometrically 4-5 days after application.

SMILES strings stand for the structures. Some results are limits rather than exact numbers.

Turning to `Cc1c(C2CN(C(=O)c3cc(-c4cccn4C)on3)Cc3ccccc32)cnn1C` (stereo not drawn) [Compound P-231, [4-(1,5-dimethylpyrazol-4-yl)-3,4-dihydro-1H-isoquinolin-2-yl]-[5-(1-methylpyrrol-2-yl)isoxazol-3-yl]methanone], the inhibition of growth at 20 ppm (in assay [1]; in the assay on Glomerella lagenarium; in the assay with Mycosphaerella arachidis) was no less than 80% in each case.

As to `Cn1cc(C2CN(C(=O)c3cc(-c4ccc(F)cc4F)on3)Cc3cc(C(F)(F)F)ccc32)cn1` (stereo not drawn) [Compound P-111, [5-(2,4-difluorophenyl)isoxazol-3-yl]-[4-(1-methylpyrazol-4-yl)-7-(trifluoromethyl)-3,4-dihydro-1H-isoquinolin-2-yl]methanone], the inhibition of growth at 20 ppm (in assay [1]; in the assay with Glomerella lagenarium; in the assay on Monographella nivalis) was no less than 80% each time.

In the case of `Cc1c(C2CN(C(=O)c3nnc(C4CCC4)s3)Cc3ccccc32)cnn1C` (stereo not drawn) [Compound P-232, (5-cyclobutyl-1,3,4-thiadiazol-2-yl)-[4-(1,5-dimethylpyrazol-4-yl)-3,4-dihydro-1H-isoquinolin-2-yl]methanone], the inhibition of growth at 20 ppm (in assay [1]; in the assay with Glomerella lagenarium; in the assay with Mycosphaerella arachidis) was no less than 80% each time.

Consider `Cc1cc(-c2cc(C(=O)N3Cc4ccccc4C(c4cnn(C)c4C)C3)no2)n(C)n1` (stereo not drawn) [Compound P-226], for which the inhibition of growth at 20 ppm (in assay [1]; in the assay with Glomerella lagenarium) was no less than 80% throughout.

As to `COc1ccc2c(c1)C(C)(c1cnn(C)c1)CN(C(=O)c1cc(-c3ccccc3)on1)C2C` (stereo not drawn) [Compound P-39, [6-methoxy-1,4-dimethyl-4-(1-methylpyrazol-4-yl)-1,3-dihydroisoquinolin-2-yl]-(5-phenylisoxazol-3-yl)methanone], the inhibition of growth at 20 ppm (in assay [1]; in the assay on Mycosphaerella arachidis; with Monographella nivalis) was no less than 80% each time.

Turning to `Cn1cc(C2CN(C(=O)c3ccc(-c4ccc(C(F)(F)F)cc4)o3)Cc3ccccc32)cn1` (stereo not drawn) [Compound P-76, [4-(1-methylpyrazol-4-yl)-3,4-dihydro-1H-isoquinolin-2-yl]-[5-[4-(trifluoromethyl)phenyl]-2-furyl]methanone], the inhibition of growth at 20 ppm in the assay on Glomerella lagenarium is no less than 80%.

`Cc1c(C2CN(C(=O)c3cc(C4CCCCC4)on3)Cc3ccccc32)cnn1C` (stereo not drawn) [Compound P-236, (5-cyclohexylisoxazol-3-yl)-[4-(1,5-dimethylpyrazol-4-yl)-3,4-dihydro-1H-isoquinolin-2-yl]methanone]: the inhibition of growth at 20 ppm (in assay [1]; with Mycosphaerella arachidis; with Monographella nivalis) was no less than 80% throughout.

As to `Cc1nn(C)c(C)c1C1CN(C(=O)c2cc(-c3ccc(Cl)cc3F)on2)Cc2ccccc21` (stereo not drawn) [Compound P-125, [5-(4-chloro-2-fluoro-phenyl)isoxazol-3-yl]-[4-(1,3,5-trimethylpyrazol-4-yl)-3,4-dihydro-1H-isoquinolin-2-yl]methanone], the inhibition of growth at 20 ppm (in assay [1]; with Mycosphaerella arachidis; in the assay on Monographella nivalis) was no less than 80% each time.

Regarding `Cn1cc(C2CN(C(=O)c3cc(-c4ccco4)on3)Cc3ccccc32)cn1` (stereo not drawn) [Compound P-188, [5-(2-furyl)isoxazol-3-yl]-[4-(1-methylpyrazol-4-yl)-3,4-dihydro-1H-isoquinolin-2-yl]methanone], the inhibition of growth at 20 ppm (in assay [1]; in the assay on Glomerella lagenarium; in the assay with Mycosphaerella arachidis) was no less than 80% throughout.

Take `Cn1cc(C2CN(C(=O)c3cc(-c4ccc(F)cc4F)on3)Cc3ccc(Cl)cc32)cn1` (stereo not drawn) [Compound P-58, [6-chloro-4-(1-methylpyrazol-4-yl)-3,4-dihydro-1H-isoquinolin-2-yl]-[5-(2,4-difluorophenyl)isoxazol-3-yl]methanone]: the inhibition of growth at 20 ppm (in assay [1]; in the assay on Glomerella lagenarium; in the assay with Monographella nivalis) was no less than 80% throughout.

In the case of `Cn1cc(C2CN(C(=O)c3cc(-c4cccc(Cl)c4)on3)Cc3ccccc32)cn1` (stereo not drawn) [Compound P-190, [5-(3-chlorophenyl)-isoxazol-3-yl]-[4-(1-methylpyrazol-4-yl)-3,4-dihydro-1H-isoquinolin-2-yl]methanone], the inhibition of growth at 20 ppm (in assay [1]; with Glomerella lagenarium; in the assay on Monographella nivalis) was no less than 80% in each case.

On to `CCC1(c2cnn(C)c2)CN(C(=O)c2cc(-c3ccc(F)cc3F)on2)C(C)c2ccccc21` (stereo not drawn) [Compound P-222, [5-(2,4-difluorophenyl)isoxazol-3-yl]-[4-ethyl-1-methyl-4-(1-methylpyrazol-4-yl)-1,3-dihydroisoquinolin-2-yl]methanone], for which the inhibition of growth at 20 ppm (in assay [1]; in the assay on Mycosphaerella arachidis; in the assay with Monographella nivalis) was no less than 80% throughout.

Take `CC1c2ccc(OCC(F)F)cc2C(C)(c2cnn(C)c2)CN1C(=O)c1cc(-c2ccc(F)cc2F)on1` (stereo not drawn) [Compound P-33, [6-(2,2-difluoroethoxy)-1,4-dimethyl-4-(1-methylpyrazol-4-yl)-1,3-dihydroisoquinolin-2-yl]-[5-(2,4-difluorophenyl)isoxazol-3-yl]methanone]: the inhibition of growth at 20 ppm (in assay [1]; in the assay on Mycosphaerella arachidis; in the assay with Monographella nivalis) was no less than 80% in each case.

`Cc1ccccc1-c1cc(C(=O)N2Cc3ccccc3C(c3cnn(C)c3)C2)no1` (stereo not drawn) [Compound P-169, [4-(1-methylpyrazol-4-yl)-3,4-dihydro-1H-isoquinolin-2-yl]-[5-(o-tolyl)isoxazol-3-yl]methanone]: the inhibition of growth at 20 ppm (in assay [1]; in the assay with Glomerella lagenarium; in the assay on Monographella nivalis) was no less than 80% in each case.

As to `Cn1cc(C2CN(C(=O)c3ccc(-c4ccc(F)cc4)o3)Cc3ccccc32)cn1` (stereo not drawn) [Compound P-97, [5-(4-fluorophenyl)-2-furyl]-[4-(1-methylpyrazol-4-yl)-3,4-dihydro-1H-isoquinolin-2-yl]methanone], in the assay on Glomerella lagenarium, the inhibition of growth at 20 ppm was no less than 80%.

As for `CC1c2ccc(OC(F)F)cc2C(C)(c2cnn(C)c2)CN1C(=O)c1cc(-c2ccc(F)cc2F)on1` (stereo not drawn) [Compound P-30, [6-(difluoromethoxy)-1,4-dimethyl-4-(1-methylpyrazol-4-yl)-1,3-dihydroisoquinolin-2-yl]-[5-(2,4-difluorophenyl)isoxazol-3-yl]methanone], the inhibition of growth at 20 ppm (in assay [1]; in the assay on Mycosphaerella arachidis; in the assay with Monographella nivalis) was no less than 80% each time.

`CC(C)[C@@]1(c2cnn(C)c2)CN(C(=O)c2cc(-c3ccc(F)cc3F)on2)[C@@H](C)c2ccccc21` [Compound P-239, [5-(2,4-difluorophenyl)isoxazol-3-yl]-[(1S,4R)-4-isopropyl-1-methyl-4-(1-methylpyrazol-4-yl)-1,3-dihydroisoquinolin-2-yl]methanone]: the inhibition of growth at 20 ppm (in assay [1]; with Mycosphaerella arachidis) was no less than 80% throughout.

Take `Cn1cc(C2CN(C(=O)c3cc(-c4cc(F)ccc4F)on3)Cc3ccccc32)cn1` (stereo not drawn) [Compound P-149, [5-(2,5-difluorophenyl)isoxazol-3-yl]-[4-(1-methylpyrazol-4-yl)-3,4-dihydro-1H-isoquinolin-2-yl]methanone]: the inhibition of growth at 20 ppm (in assay [1]; in the assay with Glomerella lagenarium; with Monographella nivalis) was no less than 80% throughout.

As for `CC(C)[C@]1(c2cnn(C)c2)CN(C(=O)c2cc(-c3ccc(F)cc3F)on2)[C@@H](C)c2ccccc21` [Compound P-241, [5-(2,4-difluorophenyl)isoxazol-3-yl]-[(1S,4S)-4-isopropyl-1-methyl-4-(1-methylpyrazol-4-yl)-1,3-dihydroisoquinolin-2-yl]methanone], the inhibition of growth at 20 ppm (in assay [1]; in the assay with Mycosphaerella arachidis) was no less than 80% each time.

`Cc1cccc(-c2cc(C(=O)N3Cc4ccccc4C(c4cnn(C)c4)C3)no2)c1` (stereo not drawn) [Compound P-187, [4-(1-methylpyrazol-4-yl)-3,4-dihydro-1H-isoquinolin-2-yl]-[5-(m-tolyl)isoxazol-3-yl]methanone]: the inhibition of growth at 20 ppm (in assay [1]; in the assay on Glomerella lagenarium) was no less than 80% each time.

Turning to `Cn1cc(C2CN(C(=O)c3cc(-c4cccn4C)on3)Cc3ccccc32)cn1` (stereo not drawn) [Compound P-179, [4-(1-methylpyrazol-4-yl)-3,4-dihydro-1H-isoquinolin-2-yl]-[5-(1-methylpyrrol-2-yl)isoxazol-3-yl]methanone], the inhibition of growth at 20 ppm (in assay [1]; in the assay on Mycosphaerella arachidis; with Monographella nivalis) was no less than 80% in each case.

`Cn1cc(C2CN(C(=O)c3cc(-c4ccc(F)c(F)c4)on3)Cc3ccccc32)cn1` (stereo not drawn) [Compound P-172, [5-(3,4-difluorophenyl)isoxazol-3-yl]-[4-(1-methylpyrazol-4-yl)-3,4-dihydro-1H-isoquinolin-2-yl]methanone]: the inhibition of growth at 20 ppm (in assay [1]; in the assay with Mycosphaerella arachidis) was no less than 80% throughout.
